Bounds are passed on as bounds.

One data set addresses NMDA receptor. The note with it: read-out: [3H]-CCP binding assay result; cited from earlier work.
For data set [1], the system named is glutamate recognition site of the NMDA receptor. Put plainly: [3H]-glutamate receptor binding assay, synaptosomal membrane from rat cortex. The note with it: for IC50: rat cortex synaptosomal membrane, read-out: affinity in [3H]-glutamate binding assay (ability to displace 50% of the radioligand). The method, then: (§1) Receptor binding experiments were performed using synaptosomal membrane from rat cortex according to means described in the literature.
(§2) Moreover, Bigge, et al., J. Med. Chem., 32 1580 (1989) discloses a [^3 H]-CCP binding assay result of 3.3 μM for the unsubstituted 5-(phosphonomethyl)-phenylalanine compound.

Data set [2] concerns the target glutamate recognition site of the NMDA receptor. Put plainly: [3H]-CGP 39653 receptor binding assay, synaptosomal membrane from rat cortex. Conditions: read-out: affinity in [3H]-CGP binding assay (ability to displace 50% of the radioligand). The method, then: as §1, §2
For data set [3], the target named is T1, neutral amino acid transporter (Cricetulus griseus, UniProt G3GRU9).
T1 construct: uptake into Chinese hamster ovary (CHO) cells; endogenous in cells; host or cells: Chinese hamster ovary (CHO) cells
Put plainly: Competition with [3H]-L-phenylalanine for uptake into CHO cells. It counts as cell-based, Chinese hamster. The note with it: 20 μM [3H]-L-phenylalanine. As for the experimental part:
Transport capacity was determined by measuring the ability of these compounds to compete with L-phenylalanine for uptake into Chinese hamster ovary (CHO) cells. All transport studies were performed in the presence of 20 μM [^3 H]-L-phenylalanine and a varying amount of the inventive compound. The capacity of the compound for transport was evaluated by its ability to reduce the transport of phenylalanine. The compounds were determined to be either substrates or not substrates of the neutral amino acid transporter,and have KM values of between 20 and 500 μM.

The subject of data set [4] is electroshock induced convulsions. Put plainly: Electroshock induced convulsions in the mouse. It counts as in vivo.

T1 sequence (G3GRU9 1-506): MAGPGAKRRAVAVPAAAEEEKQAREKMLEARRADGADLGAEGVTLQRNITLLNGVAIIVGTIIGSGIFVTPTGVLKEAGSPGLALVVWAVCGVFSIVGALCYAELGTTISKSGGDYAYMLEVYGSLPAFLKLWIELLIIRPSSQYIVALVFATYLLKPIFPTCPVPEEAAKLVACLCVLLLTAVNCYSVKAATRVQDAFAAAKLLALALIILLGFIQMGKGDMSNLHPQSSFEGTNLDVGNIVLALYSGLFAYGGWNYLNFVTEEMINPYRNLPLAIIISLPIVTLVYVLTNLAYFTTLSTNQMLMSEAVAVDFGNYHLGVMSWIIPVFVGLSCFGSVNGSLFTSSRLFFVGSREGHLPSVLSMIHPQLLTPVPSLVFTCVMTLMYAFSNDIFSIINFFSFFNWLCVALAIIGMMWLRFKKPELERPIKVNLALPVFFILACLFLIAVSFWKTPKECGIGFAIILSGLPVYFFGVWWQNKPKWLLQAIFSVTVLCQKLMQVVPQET
T1 sequence (A0A9J7CH39 1-533 partner): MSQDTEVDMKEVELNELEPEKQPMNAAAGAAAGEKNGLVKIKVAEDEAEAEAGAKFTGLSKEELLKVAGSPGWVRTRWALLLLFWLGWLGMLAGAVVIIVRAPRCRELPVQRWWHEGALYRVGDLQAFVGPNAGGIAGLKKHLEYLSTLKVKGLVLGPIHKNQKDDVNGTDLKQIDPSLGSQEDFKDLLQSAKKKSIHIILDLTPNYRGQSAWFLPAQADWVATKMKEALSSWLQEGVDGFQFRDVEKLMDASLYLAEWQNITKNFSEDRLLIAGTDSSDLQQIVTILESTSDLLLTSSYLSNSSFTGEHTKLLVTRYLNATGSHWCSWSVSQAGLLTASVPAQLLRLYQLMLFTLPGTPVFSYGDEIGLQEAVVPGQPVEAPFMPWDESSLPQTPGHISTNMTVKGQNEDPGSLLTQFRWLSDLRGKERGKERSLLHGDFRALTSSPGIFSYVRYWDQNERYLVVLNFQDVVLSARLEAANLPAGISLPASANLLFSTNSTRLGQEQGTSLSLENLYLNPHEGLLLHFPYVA

With `N[C@@H](Cc1cccc(CP(=O)(O)O)c1)C(=O)O` [5-(phosphonomethyl)-phenylalanine], the IC50 on NMDA receptor is 3300 nM.

As to `N[C@@H](Cc1cc(CP(=O)(O)O)cc(-c2cccc3ccccc23)c1)C(=O)O` [3-(1-Naphthalenyl)-5-(phosphonomethyl)-L-phenylalanine], in data set [1] ([3H]-glutamate and [3H]-CGP binding, comparison with prior art compounds), the “improvement in potency, as measured by binding assays, over prior art NMDA receptor antagonists” value was “at least a ten to thirty fold, and up to a several hundred fold improvement in potency”. Also, the IC50 in data set [1] stood at 4 nM; in data set [2] it was 8 nM. The “inhibition of phenylalanine transport” value in data set [3] is reported as “inhibited phenylalanine transport in CHO cells”. In addition, the ED50 (as a rule, the dose that gives a 50% effect, or the effect in half of the subjects) in data set [4] (iv, 50 mA 200 ms corneal shock, read-out: ED50, inhibition of hindlimb extension) was less than 1 mg/kg. In data set [4] (oral), the “anticonvulsant activity after oral administration” value was “demonstrates activity after oral administration with an extended duration of action”.

As for `NC(Cc1cc(CP(=O)(O)O)cc(-c2ccccc2)c1)C(=O)O` (single isomer, unassigned) [(+)-α-amino-3-(5-phosphonomethyl-[1,1'-biphenyl]-3-yl)propanoic acid, reference compound], the IC50 in data set [1] was 115 nM; in data set [2], 98 nM.

These data come from patent US5668121A, “Glutamate (NMDA) receptor antagonists” (Warner-Lambert Company, priority 1995, dated 1997).
